# Assay results reported in patent publication US20150306182A1, “FAT LOSS COMPOSITION” (priority 2012, published 2015).
# Several values for one entry are separate records, joined by “and”; a condition that tells them apart may be missing. Equal values may be shown once. Entries after “also recorded” stand apart in the source; their conditions may differ. No end group written: not given here.
# Legend:
# [1] = Cloprostenol sodium alone in male and female subjects (Example 1); format: in vivo, human
# Protocol: Cloprostenol sodium was taken by eight male and two female subjects at a dosage of 120 micrograms for every 2501b (113 kg) body weight. The dosage was calculated pro rata based on the weight of the subject involved.
# With the female subjects the process was identical. However, the dosage was reduced to 15 μg per shot for menstrual reasons.
# [2] = acute administration in humans, case reports; cited from earlier work
# [3] = cited from earlier work
# [4] = Four week trial of amino acids 176-191 of human growth hormone alone (Example 2); format: in vivo; conditions: for Bowel Habits (per day): one value per test subject
# From the text: Ten subjects were given a daily subcutaneous dose of 2 International Units (IU) of amino acids 176-191 of human growth hormone for a four week trial period.
# adipose tissue = conditions: cited from earlier work
# hGH receptor = target: T1, hGH receptor (Homo sapiens, UniProt P10912); conditions: unlike Human Growth Hormone; cited from earlier work
# T1 sequence (P10912 19-638): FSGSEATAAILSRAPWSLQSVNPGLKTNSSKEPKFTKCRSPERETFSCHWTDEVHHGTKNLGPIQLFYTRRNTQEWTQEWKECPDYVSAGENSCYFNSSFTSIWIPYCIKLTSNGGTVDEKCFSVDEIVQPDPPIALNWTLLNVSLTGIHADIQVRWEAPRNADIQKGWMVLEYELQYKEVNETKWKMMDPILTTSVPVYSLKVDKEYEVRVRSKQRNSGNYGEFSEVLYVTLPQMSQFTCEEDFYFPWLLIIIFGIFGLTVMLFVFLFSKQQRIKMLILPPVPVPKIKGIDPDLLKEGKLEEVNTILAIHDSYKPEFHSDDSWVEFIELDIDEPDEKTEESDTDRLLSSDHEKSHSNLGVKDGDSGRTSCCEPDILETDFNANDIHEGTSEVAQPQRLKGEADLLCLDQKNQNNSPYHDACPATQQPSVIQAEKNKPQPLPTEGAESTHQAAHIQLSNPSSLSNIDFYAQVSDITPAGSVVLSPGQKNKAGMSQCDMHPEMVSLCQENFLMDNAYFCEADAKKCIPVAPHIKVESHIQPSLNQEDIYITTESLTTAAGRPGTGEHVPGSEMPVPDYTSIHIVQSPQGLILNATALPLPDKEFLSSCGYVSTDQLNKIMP
# cell proliferation = conditions: unlike Human Growth Hormone; cited from earlier work
# [5] = system: isolated adipose tissue from obese rodents; conditions: cited from earlier work
# ob/ob mice = conditions: cited from earlier work
# [6] = system: isolated adipose tissue from obese humans; conditions: cited from earlier work
# [7] = minimal dose of 40 μg; cited from earlier work
# [8] = ten subjects, daily subcutaneous 2 IU, four weeks
compound,measurement,setting,value
"O=C(O)CCC/C=C\CC1C(O)CC(O)C1/C=C/C(O)COc1cccc(Cl)c1 (centres unmarked) [Cloprostenol sodium, cloprostenol sodium]",Willingness to continue use,[1]; all recipients,None of the recipients wished to continue to use this product for more than three days
same,Side effects and willingness to continue in females,"[1]; females, 15 μg per shot",No female subjects wished to continue using this product due to severe stomach cramps
same,Side effects in males,"[1]; males, shots of 30 μg at a time",very severe stomach cramps and extensive bowel movements
same,Comments (stopping of use),"[1]; same dosing, one comment per test subject",Stopped after 2 days; also recorded: Stopped as cramp and pain; also recorded: Stopped after 1st day; also recorded: Stopped after 3 days
"O=[N+]([O-])c1ccc(O)c([N+](=O)[O-])c1 [DNP, 2,4-Dinitrophenol]",Lethal acute administration,[2],20 to 50 mg/kg
"YLRIVQCRSVEGSCGF (cysteine pairing not given here) [HGH fragment 176-191, freely available commercially]",Side effects,[3]; clinical trial and experimental users,No side effects have been reported
same,Stimulation of the metabolism of body fat,[3]; humans,highly successful at stimulating the metabolism of body fat in humans
same,Average overall weight loss (fat),"[3]; in three months, oral dosing",3 kg
same,Most effective daily dose,"[3]; lowest of 6 doses, oral, 3 months",1 mg
same,Weight loss relative to test subjects not taking the peptide,"[3]; three months, more than subjects not taking the peptide",300%
same,Body Fat,"[4]; Test subject 1, Week 4, start 17%",15%
same,Weight,"[4]; Test subject 1, Week 4, start 98 kg",(96 kg)
same,Weight,"[4]; Test subject 1, Week 4, start 217 lb",212 lb
same,Body Fat,"[4]; Test subject 2, Week 4, start 31%",28%
same,Weight,"[4]; Test subject 2, Week 4, start 92 kg",(89 kg)
same,Weight,"[4]; Test subject 2, Week 4, start 203 lb",196 lb
same,Body Fat,"[4]; Test subject 3, Week 4, start 18%",15%
same,Weight,"[4]; Test subject 3, Week 4, start 108 kg",(106 kg)
same,Weight,"[4]; Test subject 3, Week 4, start 238 lb",233 lb
same,Body Fat,"[4]; Test subject 4, Week 4, start 10%",10%
same,Weight,"[4]; Test subject 4, Week 4, start 92 kg",(92 kg)
same,Weight,"[4]; Test subject 4, Week 4, start 203 lb",203 lb
same,Body Fat,"[4]; Test subject 5, Week 4, start 25%",24%
same,Weight,"[4]; Test subject 5, Week 4, start 105 kg",(103 kg)
same,Weight,"[4]; Test subject 5, Week 4, start 231 lb",226 lb
same,Body Fat,"[4]; Test subject 6, Week 4, start 32%",30%
same,Weight,"[4]; Test subject 6, Week 4, start 68 kg",(67 kg)
same,Weight,"[4]; Test subject 6, Week 4, start 150 lb",147 lb
same,Body Fat,"[4]; Test subject 7, Week 4, start 30%",28%
same,Weight,"[4]; Test subject 7, Week 4, start 79 kg",(76 kg)
same,Weight,"[4]; Test subject 7, Week 4, start 173 lb",168 lb
same,Body Fat,"[4]; Test subject 8, Week 4, start 34%",30%
same,Weight,"[4]; Test subject 8, Week 4, start 108 kg",(103 kg)
same,Weight,"[4]; Test subject 8, Week 4, start 238 lb",226 lb
same,Body Fat,"[4]; Test subject 9, Week 4, start 10%",10%
same,Weight,"[4]; Test subject 9, Week 4, start 79 kg",(79 kg)
same,Weight,"[4]; Test subject 9, Week 4, start 175 lb",175 lb
same,Body Fat,"[4]; Test subject 10, Week 4, start 21%",18%
same,Weight,"[4]; Test subject 10, Week 4, start 86 kg",(83 kg)
same,Weight,"[4]; Test subject 10, Week 4, start 189 lb",182 lb
same,Bowel Habits (per day),"[4]; Week 1, daily subcutaneous 2 IU",2 per day and 1 per day
same,Bowel Habits (per day),"[4]; Week 2, daily subcutaneous 2 IU",2 per day and 1 per day
same,Bowel Habits (per day),"[4]; Week 3, daily subcutaneous 2 IU",1 per day and 2 per day
same,Bowel Habits (per day),"[4]; Week 4, daily subcutaneous 2 IU",1 per day and 2 per day
same,Completion of trial,[4]; [8],All subjects completed the four week trial
same,Reduction in body fat and weight loss,[4]; [8],no real reduction in body fat or meaningful weight loss
"HGH Fragment 177-191: Human growth hormone fragment of the cited studies; shares amino acid sequence with Human Growth Hormone (LRIVQCRSVEGSCGF; ends and bridges not checked; cysteine pairing not given here; UniProt P01241 203-217, looked up, fragment)",Lipolytic activity in adipose tissue,adipose tissue; dosage of 500 μg,increase lipolytic activity in adipose tissue
same,Impact on insulin sensitivity,adipose tissue; in vivo,no negative impact on insulin sensitivity
same,Competition for the hGH receptor,hGH receptor,does not compete for the hGH receptor
same,Induction of cell proliferation,cell proliferation,nor does it induce cell proliferation
same,In vitro lipogenic activity,[5],decreased lipogenic activity
same,In vitro lipolytic activity,[5],increased in vitro lipolytic activity
same,"Energy expenditure, glucose and fat oxidation",ob/ob mice,increasing energy expenditure and glucose and fat oxidation
same,In vitro lipogenic activity,[6],decreased lipogenic activity
same,In vitro lipolytic activity,[6],increased in vitro lipolytic activity
"O=C(O)CCC/C=C\C[C@@H]1C(/C=C/[C@@H](O)COc2cccc(Cl)c2)[C@H](O)C[C@@H]1O (stereo partly drawn) [Cloprostenol, (5Z)-7-[(1R,3R,5S)-2-[(E,3R)-4-(3-chlorophenoxy)-3-hydroxybut-1-enyl]-3,5-dihydroxycyclopentyl]hept-5-enoic acid]",Bowel evacuation after dosing,[7],within ten minutes users will have to evacuate their bowels
